The conditions of the data set: mouse, in vivo.

Protocol: The mice were slaughtered 3 hours after injection (each group consisted of 3 mice). The materials of liver, kidney, spleen, lungs, small intestines, tumor, surrounding muscle tissue as well as from blood, urine, faeces from large intestine weighing 100 mg each were thoroughly homogenised in glass homogenizers supplementing 4 ml of saline solution. For examination of biological fluids (blood, urine) 0,1 ml of each fluid were taken with subsequent dissolution in 4 ml of saline solution. The resulting homogenates were studied on “Perkin-Elmer” spectrofluorimeter (MPF-44A model).

On to “13-carboxy-17-[2-carboxyethyl]-15-formyl-17,18-trans-dihydro-3-vinyl-8-ethyl-2,7,12,18-tetramethylporphyrin [purpurin 5]”, for which the “time interval of tumour accumulation optimal for photodynamic effect according to selectivity” value fell in the range of 3 to 18 h.

(Values after US7550587B2, “Photosensitizer and method for production thereof” (priority 2001, dated 2009).)
